# Experimental data as given in US11401306B2, “HPV16 non HLA-restricted t-cell vaccines, compositions and methods of use thereof” (priority 2016, dated 2022).
# How the values were obtained:
# Format in all cases: in vivo
# [1] = system: TC-1 tumor; test: TC-1 tumor regression screening of peptides in C57/B6 mice; set-up: key: Positive: a positive T-cell response was a T-cell response that resulted in regression of the tumor; details: TC-1 tumors in C57/B6 mice, vaccinated day 7, peptide alone or with cationic lipid
# Excerpt: (§1) Sequence selection was accomplished herein using both tumor regression studies in C57/B6 mice, and interferon-gamma ELISPOT studies in HLA-A2 humanized transgenic mice. […] In the HLA-A2 mouse model ELISPOT study, at least 20 spots per million splenocytes was regarded to be a positive response.
# This example illustrates the evaluation or screening of several HPV16 E7 peptides in the TC-1 mouse tumor regression model for their effective processing and presentation of the key epitopes leading to HPV-specific T-cell induction and subsequent tumor regression.
# In the tumor regression screening studies mice were implanted with 100,000 TC-1 cells on day 0. On day 7, once the tumors were well established the mice were vaccinated with the specific peptide sequences, either formulated alone or in combination with cationic lipids such as DOTMA, DOEPC or R-DOTAP to facilitate up-take and presentation. In these studies, the vaccine contained the selected peptide at a concentration of 0.1-3.0 mg/mL and cationic liposomes at a concentration of 0.2-3.0 mg/mL. In the cases where the peptide sequences were lipidated by attaching a palmitoyl chain, the peptides were simply mixed with the cationic liposomes prior to vaccination. In the case of the non-lipidated peptides, the liposomes were made and peptides encapsulated by traditional thin film liposome preparation methods (F Szoka, and D Papahadjopoulos, Comparative Properties and Methods of Preparation of Lipid Vesicles (Liposomes), Annual Review of Biophysics and Bioengineering, Vol. 9:467-508, 1980). Other methods well known to those skilled in the art may also have been used.
# A sample tumor regression plot showing results for peptides corresponding to SEQ ID NO: 1 (blank square), SEQ ID NOS: 7, 8, 31 32 and 31 (solid black circle), SEQ ID NO: 7 (blank circle), and SEQ ID NO: 8 (solid black triangle) is shown in FIG. 3.
# [2] = system: HPV-specific T-cell response (splenocytes); test: IFN-g ELISPOT on splenocytes of vaccinated humanized HLA-A2 transgenic mice
# Excerpt: as §1
# This example highlights the approach to evaluating T-cell responses using ELISPOT studies in humanized HLA-A2 transgenic mice. In these studies, the vaccine contained the selected peptide at a concentration of 0.1-3.0 mg/mL and cationic liposomes when used, at a concentration of 0.2-3.0 mg/mL. Humanized HLA-A2 transgenic mice having components of the human immune system capable of recognizing human antigens were vaccinated on day 0 and day 7 with 100 uL of the vaccine. On day 14 the mice were sacrificed and HPV-specific immune response evaluated by interferon-gamma ELISPOT using standard approaches with the splecocytes from the mice (4-8 per group). The splenocytes were stimulated with the specified CD8+ T-cell epitope peptides or the long multi-epitope peptides specified in Table 2. The number of IFN-g spots per million cells is listed for the specified examples. […] The ability of the humanized transgenic mice to successfully generate a T-cell immune response (>20 spots) when stimulated with each of the long multi-epitope peptides as well as short single epitope peptides confirms that the selected peptides are effectively processed and presented to T-cells. In these studies, un-stimulated splenocytes and splenocytes stimulated with irrelevant peptides were both used together as negative controls in every assay. For the positive control in the assay ConA was used.
# The present study was performed to evaluate the effect of chemical modification of select peptides on immunogenicity and their ability to be processed, presented and to prime human CD8+ HPV-specific T-cell responses. Peptides corresponding to SEQ ID NO: 23 and 25 contain cysteines which upon oxidation lead to the formation of dimers and other multimers. Two vaccine formulations were prepared containing peptides corresponding to SEQ ID NO: 23 and 25.
# In Formulation A: Both peptides were monomeric with high purity confirmed by HPLC analysis. The vaccine contained 1.5-1.6 mg/mL of each peptide.
# In Formulation B: Significant oxidation and multimer formation of both peptides was confirmed by HPLC analysis.
# Both formulations were mixed 1:1 with 5.8 mg/mL of R-DOTAP prior to vaccination.
# The immunogenicity of the peptides was compared as described in the above examples in 10 HLA-A2 mice per formulation by evaluating the ability to induce CD8+ T-cells. ELISPOT studies were performed as described above.
# [3] = system: HPV-specific CD8+ T-cell induction (splenocytes); test: ELISPOT in normal C57/B6 mice, peptide with other cationic lipids; details: stimulated with RAHYNIVTF (SEQ ID NO: 1)
# Protocol: To determine if the identified long HPV16 peptides are compatible with other cationic lipids besides DOTAP, the peptide corresponding to SEQ ID NO: 26 was used as the model peptide in combination with two other cationic lipids DOTMA and DOEPC. To evaluate the ability of the peptides to effectively undergo processing and presentation, in the presence of both cationic lipids, an ELISPOT study was conducted using normal C57/B6 mice. ELISPOT studies were performed as described above and utilized to determine effective CD8+ T-cell induction.
# In formulation 1, 1.35 mg/mL of DOTMA was mixed 1:1 v/v with 0.5 mg/mL of the peptide corresponding to SEQ ID NO: 26.
# In formulation 2, 1.67 mg/mL of DOEPC was missed 1:1 v/v with 0.5 mg/mL of the peptide corresponding to SEQ ID NO: 26.
# For each formulation 4 mice were vaccinated on Day 0 and Day 7. On Day 14 the mice were scarified and the splenocytes utilized in the ELISPOT study.
substance,measurement,setting,value
PalmKSS GQAEPDRAHYNIVTF [SEQ ID NO: 26],"Immune Response, Method: tumor regression",[1],Positive tumor regression
same,"Immune Response, Method: ELISPOT","[2]; HLA-A2 humanized transgenic mice, IFN-gamma ELISPOT","Positive, ELISPOT (at least 20 spots per million splenocytes was regarded to be a positive response)"
same,ELISPOT result Av spots/10^6 cells,[2]; splenocytes stimulated with GQAEPDRAHYNIVTF (SEQ ID NO: 5),"1,544 spots/10^6 cells"
same,ELISPOT result Av spots/10^6 cells,[2]; splenocytes stimulated with RAHYNIVTF (SEQ ID NO: 1),"1,552 spots/10^6 cells"
same,ELISPOT result Av spots/10^6 cells,[3]; formulated with DOEPC (formulation 2),243 spots/10^6 cells
same,ELISPOT result Av spots/10^6 cells,[3]; formulated with DOTMA (formulation 1),988 spots/10^6 cells
